Laboratory results from EPA's ToxValDB 9.5 (doi:10.2903/j.efsa.2016.4612).

Columns and labels:
Folsomia candida = settings: chronic/long-term; duration: 28 days; reproduction
Tagia sp. = settings: chronic/long-term; duration: 56 days
Landoltia sp. = settings: acute; duration: 7 days; other
Lepomis macrochirus = settings: acute; duration: 96 hours; mortality
Rattus norvegicus = settings: for LD50: acute, gavage, mortality
Apis mellifera = settings: acute, duration: 48 hours, mortality
Colinus virginianus = settings: oral
Daphnia magna = settings: chronic/long-term; duration: 21 days; reproduction
Oncorhynchus mykiss = settings: acute; duration: 96 hours; mortality
Oryctolagus sp. = settings: reproduction developmental; clinical signs
Pimephales promelas = settings: chronic/long-term; duration: 35 days; reproduction

`CCCOc1nn(C(N)=O)c(=O)n1C` gave an NOEC (Folsomia candida) of 10 mg/kg and an NOEC (Tagia sp.) of 316 mg/kg.

`CCCOc1nn(C(=O)NS(=O)(=O)c2ccccc2C(=O)O)c(=O)n1C` gave an NOEC (Landoltia sp.) of 14.2 mg/L and an LC50 (Lepomis macrochirus) greater than 87.7 µg/mL.

`O=C1NS(=O)(=O)c2cccc(O)c21` [4-hydroxy-1H-1,2-benzisothiazole-1,1,3(2H)-trione] showed an NOEC (Folsomia candida) of 10 mg/kg and an NOEC (Tagia sp.) of 5 mg/kg.

Work on `COC(=O)c1ccccc1S(=O)(=O)NC(=O)n1nc(OCC(C)O)n(C)c1=O` (stereo not given) [Propoxycarbazone-2-hydroxypropoxy] yielded an LD50 (Rattus norvegicus; oral) greater than 5000 mg/kg-day and an NOAEL (Rattus norvegicus; short-term, duration: 28 days, oral, diet) greater than 880 mg/kg-day.

Molecule `CCCOc1nn(C(=O)[N-]S(=O)(=O)c2ccccc2C(=O)OC)c(=O)n1C.[Na+]` [Propoxycarbazone-sodium] has an LD50 (Apis mellifera; dermal) greater than 100 µg/piece, an LD50 (Apis mellifera; oral, unspecified) greater than 110 µg/piece and an LD50 (Colinus virginianus; acute, mortality) greater than 2000 mg/kg-day. The NOEL (Colinus virginianus; reproduction developmental, duration: 25 weeks, diet, reproduction) was 45 mg/kg-day, the NOEC (Daphnia magna) was 13.8 mg/L and the NOEC (Folsomia candida) was 500 mg/kg. For the same molecule, the LC50 (Oncorhynchus mykiss) was greater than 77.2 µg/mL, the NOAEL (Oryctolagus sp.) was 100 mg/kg-day and the NOEC (Pimephales promelas) was 5.83 mg/L. It also gave an LD50 (Rattus norvegicus; oral) greater than 5000 mg/kg-day, an NOAEL (Rattus norvegicus; chronic, duration: 2 years, clinical chemistry) of 43 mg/kg-day and an NOEC (Tagia sp.) of 1.25 mg/kg.
